Measured values published in PubChem BioAssay (NCI).
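Cultured in 96-well plates, cells were exposed to test compound for 48 hours across five concentrations. The concentration for full growth arrest is given as TGI.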

What was measured:
Assay in all cases: inhibition of tumour cell growth, NCI panel, 48 h
[1] = test system: SF-539 CNS
[2] = test system: M14 melanoma
[3] = test system: NCI/ADR-RES ovarian
[4] = test system: SK-OV-3 ovarian
[5] = test system: A549 NSCLC
[6] = test system: K-562 leukemia
[7] = test system: SNB-75 CNS
[8] = test system: NCI-H23 lung
[9] = test system: CCRF-CEM leukemia
[10] = test system: MCF7 breast
[11] = test system: MDA-N
[12] = test system: U251 CNS
[13] = test system: SF-268 CNS
[14] = test system: SNB-19 CNS
[15] = test system: IGROV1 ovarian
[16] = test system: NCI-H460 lung
[17] = test system: BT-549 breast
[18] = test system: MDA-MB-435
[19] = test system: SK-MEL-2 melanoma
[20] = test system: SK-MEL-28 melanoma
[21] = test system: UACC-62 melanoma
[22] = test system: MDA-MB-231 breast
[23] = test system: LOX IMVI melanoma
[24] = test system: SK-MEL-5 melanoma
[25] = test system: OVCAR-5 ovarian
[26] = test system: 786-0 renal
[27] = test system: MOLT-4 leukemia
[28] = test system: ACHN renal
[29] = test system: HS 578T breast
[30] = test system: HCT-15 colon
[31] = test system: UACC-257 melanoma
[32] = test system: RXF 393 renal
[33] = test system: UO-31 renal
[34] = test system: SN12C renal
[35] = test system: COLO 205 colon
[36] = test system: SR leukemia
[37] = test system: OVCAR-3 ovarian
[38] = test system: OVCAR-8 ovarian
[39] = test system: MALME-3M melanoma
[40] = test system: T-47D breast
[41] = test system: HOP-92 NSCLC
[42] = test system: HL-60(TB) leukemia
[43] = test system: KM12 colon
[44] = test system: A498 renal
[45] = test system: SW-620 colon
[46] = test system: HCT-116 colon
[47] = test system: TK-10 renal
[48] = test system: CAKI-1 renal
[49] = test system: NCI-H226 lung
[50] = test system: NCI-H522 lung
[51] = test system: EKVX NSCLC
[52] = test system: SF-295 CNS
[53] = test system: DU-145 prostate
[54] = test system: OVCAR-4 ovarian
[55] = test system: HT29 colon
[56] = test system: PC-3 prostate
[57] = test system: RPMI-8226 leukemia
[58] = test system: HOP-62 NSCLC
[59] = test system: HCC-2998 colon

CO[P@@]1(=O)O[C@@H](c2ccccc2)[C@H](O)[C@@]1(O)c1ccccc1
TGI [1]: > 100 µM
TGI [2]: > 100 µM
TGI [3]: > 100 µM
TGI [4]: > 100 µM
TGI [5]: > 100 µM
TGI [6]: > 100 µM
TGI [7]: > 100 µM
TGI [8]: > 100 µM
TGI [9]: > 100 µM
TGI [10]: > 100 µM
TGI [11]: > 100 µM
TGI [12]: > 100 µM
TGI [13]: > 100 µM
TGI [14]: > 100 µM
TGI [15]: > 100 µM
TGI [16]: > 100 µM
TGI [17]: > 100 µM
TGI [18]: > 100 µM
TGI [19]: > 100 µM
TGI [20]: > 100 µM
TGI [21]: > 100 µM
TGI [22]: > 100 µM
TGI [23]: > 100 µM
TGI [24]: > 100 µM
TGI [25]: > 100 µM
TGI [26]: > 100 µM
TGI [27]: > 100 µM
TGI [28]: > 100 µM
TGI [29]: > 100 µM
TGI [30]: > 100 µM
TGI [31]: > 100 µM
TGI [32]: > 100 µM
TGI [33]: > 100 µM
TGI [34]: > 100 µM
TGI [35]: > 100 µM
TGI [36]: 74.7 µM
TGI [37]: > 100 µM
TGI [38]: > 100 µM
TGI [39]: > 100 µM
TGI [40]: > 100 µM
TGI [41]: > 100 µM
TGI [42]: > 100 µM
TGI [43]: > 100 µM
TGI [44]: > 100 µM
TGI [45]: > 100 µM
TGI [46]: > 100 µM
TGI [47]: > 100 µM
TGI [48]: > 100 µM
TGI [49]: > 100 µM
TGI [50]: > 100 µM
TGI [51]: > 100 µM
TGI [52]: > 100 µM
TGI [53]: > 100 µM
TGI [54]: > 100 µM
TGI [55]: > 100 µM
TGI [56]: > 100 µM

CC1(C=O)CC(CCc2ccccc2)NC1Cc1ccc(O)cc1 (centres undefined)
TGI [57]: 40.7 µM
TGI [1]: 29.4 µM
TGI [2]: 29.7 µM
TGI [3]: 37.6 µM
TGI [4]: 33.4 µM
TGI [5]: 30.1 µM
TGI [6]: 48.1 µM
TGI [7]: 28.6 µM
TGI [8]: 43.5 µM
TGI [9]: 82.7 µM
TGI [10]: 27.1 µM
TGI [11]: 32.1 µM
TGI [12]: 26.5 µM
TGI [13]: 33.1 µM
TGI [58]: 36.4 µM
TGI [14]: 28.1 µM
TGI [15]: 30.8 µM
TGI [16]: 31.8 µM
TGI [17]: 39.4 µM
TGI [18]: 34 µM
TGI [19]: 29 µM
TGI [20]: 54 µM
TGI [21]: 30.3 µM
TGI [22]: 26.5 µM
TGI [23]: 35 µM
TGI [24]: 29.4 µM
TGI [25]: 31.5 µM
TGI [26]: 29.2 µM
TGI [27]: 38.2 µM
TGI [28]: 28.6 µM
TGI [29]: 41.9 µM
TGI [30]: 43.3 µM
TGI [31]: 29.6 µM
TGI [32]: 31 µM
TGI [33]: 28.4 µM
TGI [34]: 31.6 µM
TGI [35]: 23.3 µM
TGI [36]: 33.9 µM
TGI [37]: 33.2 µM
TGI [38]: 43.7 µM
TGI [40]: 40.9 µM
TGI [41]: 30 µM
TGI [42]: 31.8 µM
TGI [43]: 37.5 µM
TGI [44]: 27.9 µM
TGI [45]: 62.3 µM
TGI [46]: 29.6 µM
TGI [47]: 31.8 µM
TGI [48]: 29.3 µM
TGI [49]: 31.5 µM
TGI [59]: 24.9 µM
TGI [50]: 35 µM
TGI [51]: 29 µM
TGI [52]: 33.8 µM
TGI [53]: 33.4 µM
TGI [54]: 29 µM
TGI [55]: 29.5 µM
TGI [56]: 26.7 µM
